Measurements published in article PMC7395068, “The evolution of strategies to minimise the risk of human drug-induced liver injury (DILI) in drug discovery and development” (Archives of Toxicology, 2020).
Read-outs that look alike come from different tables or passages of the source.

Key:
[1] = cited from earlier work
hLiMTs [2] = test: Combined HCI (HCS) and cellular ATP 3D assay in hLiMTs; settings: for AC50: Homo sapiens
[3] = test system: isolated mouse liver mitochondria; settings: In vitro Assay; ref Porceddu 2012; cited from earlier work
PHH = settings: cited from earlier work
[4] = cited from earlier work; remark: listed apart in the source
rBsep = settings: In vitro Assay; ref Dawson 2012; cited from earlier work
[5] = Plasma free fraction (fu) and unbound Cmax (Cmax,u); type: in vitro ADME, human; settings: unbound plasma Cmax
[6] = test system: HepG2 C3A spheroid, BSEP, Glu/Gal in HepG2 cells, bioactivation; settings: cited from earlier work
[7] = test system: THLE-Null and THLE-3A4 cells; settings: In vitro Assay; ref Gustafsson 2014; cited from earlier work
HepG2 cells = settings: cited from earlier work
HepaRG spheroids = test: Combined HCI (HCS) and cellular ATP 3D assay in HepaRG spheroids; settings: for AC50: Homo sapiens
[8] = plasma free fraction; cited from earlier work
PHH spheroids = settings: cited from earlier work
[9] = read-out: Human plasma Cmax; total plasma Cmax.tot, median of 9 literature references; cited from earlier work
hLiMTs [10] = settings: cited from earlier work
[11] = Microtissue model structural based (HCI), combined HCS and ATP, MEC < 25 × Cmax.tot cut-off
[12] = In vitro Assay, ref Proctor 2017

- hLiMTs <25x Avg Cmax ATP (hLiMTs [2]; hLiMTs, ATP endpoint, cut-off <25x Avg Cmax): +ve
- hLiMTs <100x Avg Cmaxu ATP (hLiMTs [2]; hLiMTs, ATP endpoint, cut-off <100x Avg Cmaxu): +ve (<100x Avg Cmaxu)
- hLiMTs <25x Avg Cmax HCS (hLiMTs [2]; hLiMTs, HCS endpoints, cut-off <25x Avg Cmax): +ve
- hLiMTs <100x Avg Cmaxu HCS (hLiMTs [2]; hLiMTs, HCS endpoints, cut-off <100x Avg Cmaxu): -ve
- hLiMTs <25x Avg Cmax All (hLiMTs [2]; hLiMTs, all endpoints (ATP and HCS), cut-off <25x Avg Cmax): +ve
- hLiMTs Cmax max All (hLiMTs [2]; hLiMTs, all endpoints, Cmax max used): +ve
- hLiMTs Cmax min All (hLiMTs [2]; hLiMTs, all endpoints, Cmax min used): +ve
- hLiMTs <10 uM All (hLiMTs [2]; hLiMTs, all endpoints, cut-off <10 uM): +ve (<10 uM)
- hLiMTs <100x Avg Cmaxu All (hLiMTs [2]; hLiMTs, all endpoints, cut-off <100x Avg Cmaxu): +ve (<100x Avg Cmaxu)
- Human plasma Cmax,u [5]: 0.161 µM
- HepaRG <25x Avg Cmax ATP (HepaRG spheroids; HepaRG, ATP endpoint, cut-off <25x Avg Cmax): +ve
- HepaRG <100x Avg Cmaxu ATP (HepaRG spheroids; HepaRG, ATP endpoint, cut-off <100x Avg Cmaxu): -ve
- HepaRG <25x Avg Cmax HCS (HepaRG spheroids; HepaRG, HCS endpoints, cut-off <25x Avg Cmax): +ve
- HepaRG <100x Avg Cmaxu HCS (HepaRG spheroids; HepaRG, HCS endpoints, cut-off <100x Avg Cmaxu): -ve
- HepaRG <25x Avg Cmax All (HepaRG spheroids; HepaRG, all endpoints (ATP and HCS), cut-off <25x Avg Cmax): +ve
- HepaRG Cmax max All (HepaRG spheroids; HepaRG, all endpoints, Cmax max used): +ve
- HepaRG Cmax min All (HepaRG spheroids; HepaRG, all endpoints, Cmax min used): +ve
- HepaRG <10 uM All (HepaRG spheroids; HepaRG, all endpoints, cut-off <10 uM): -ve
- HepaRG <100x Avg Cmaxu All (HepaRG spheroids; HepaRG, all endpoints, cut-off <100x Avg Cmaxu): -ve
SMILES: Clc1ccccc1CN1CCc2sccc2C1 [ticlopidine]
- Assigned DILI category ([1]; Chen et al. 2016 or literature alignment, ref Chen et al. 2016): 3
- In vivo DILI ([1]; […]): +VE
- In vivo DILI ([1]; ref Dawson 2012): +VE
- In vivo DILI ([1]; ref Garside 2014): +VE
- In vivo DILI ([1]; ref Gustafsson 2014): +VE
- In vivo DILI ([1]; ref Porceddu 2012): +VE
- In vivo DILI ([1]; ref Proctor 2017): +VE
- In vivo DILI ([1]; ref Tolosa 2012): +VE
- In vivo DILI ([1]; ref Vorrink 2018): +VE
- In vivo DILI ([1]; ref Williams 2019): +VE
- In vivo DILI ([1]; ref Xu 2008): +VE
- AC50 (hLiMTs [2]; read-out: ATP endpoint AC50): 10.7 µM
- AC50 (hLiMTs [2]; read-out: HCS endpoint AC50): 115 µM
- DILI prediction hLiMTs (HCS-MEC) (hLiMTs [2]; [11]): +VE (MEC < 25 × Cmax.tot cut-off)
- in vitro data EC2<=1x Cmax [3]: +VE
- in vitro data EC20<=2uM [3]: +VE
- PHH/100uM, Proctor (2017) (PHH; 2D PHH, ATP, IC50 threshold 100 µM, ref Proctor et al. 2017): -VE
- PHH ATP <100uM (PHH; [12]): -VE
- DILI severity category (Chen et al. [2016]) ([4]; LTKB DILIrank category, ref Chen et al. 2016): Most
- DILI severity category ([4]; human DILI severity, ref Chen et al.): Most
- DILI +VE (5-8), DILI -VE (-4) ([4]; ref Chen 2016): +VE
- DILI severity category ([4]; ref Chen 2016): vMost-DILI-Concern
- Inhibition of rBsep cutoff<1& cmax u>.2 (rBsep): +VE
- Inhibition of rBsep cutoff<3 (rBsep): +VE
- Bayesian Machine Learning DILI prediction, Williams (2019) ([6]; Bayesian modeling, ref Williams et al. 2019): +VE
- Bayesian Machine Learning ([6]; In vitro Assay, ref Williams 2019): +VE
- THLE-Null [7]: +VE
- Structural based (HCI) (HepG2 cells; In vitro Assay, ref Tolosa 2012): +VE
- DILI in vitro assay prediction, Tolosa (2012) (HepG2 cells; Structural based (HCI), HepG2, ref Tolosa et al. 2012): +VE
- AC50 (HepaRG spheroids; HepaRG, read-out: ATP endpoint AC50): 56 µM
- AC50 (HepaRG spheroids; HepaRG, read-out: HCS endpoint AC50): 60.8 µM
- DILI prediction HepaRG spheroids (HCS-MEC) (HepaRG spheroids; [11]): +VE (MEC < 25 × Cmax.tot cut-off)
- fu [8]: 0.020
- hLiMTs ATP <20 x Cmax (PHH spheroids; In vitro Assay, ref Vorrink 2018): +VE (IC20 < 20 × Cmax.tot cut-off)
- DILI in vitro assay prediction, Vorrink (2018) (PHH spheroids; PHH spheroids, ATP, 14 days, IC20 < 20 × Cmax.tot, ref Vorrink et al. 2018): +VE (IC20 < 20 × Cmax.tot cut-off)
- Cmax [9]: 8.07 µM
- hLiMTs ATP <100uM (hLiMTs [10]; [12]): +VE (IC50 threshold of 100 µM)
- hLiMTs/100uM, Proctor (2017) (hLiMTs [10]; hLiMTs, ATP, IC50 threshold 100 µM, ref Proctor et al. 2017): -VE
